Where a name gives a salt, the structure may show the parent alone. Read-outs that look alike come from different tables or passages of the source.
Columns and labels:
[1] = test system: HepG2 (Hepatocellular Carcinoma); experiment: Cell viability analysis, hepatic cancer HepG2; type: cell-based, human; settings: Homo sapiens, HepG2, 72 h
[2] = test system: cancer cell lines; experiment: Cell viability analysis (WST-1) on cancer cell lines; type: cell-based, human; settings: drug 10 μM, 72 hours, WST-1; Table 3
[3] = test system: HL-60 (Acute Promyelocytic Leukemia); experiment: Cell viability analysis, leukemia HL-60; type: cell-based, human; settings: Homo sapiens, HL-60, 72 h, drug 10 μM, 72 hours, WST-1, OD450 nm; read-out: cell viability (survival rate), HL-60
[4] = test system: AGS (Gastric Adenocarcinoma); experiment: Cell viability analysis, gastric cancer AGS; type: cell-based, human; settings: Homo sapiens, 72 h
[5] = test system: Hep3B (hepatocellular carcinoma); experiment: Cell viability analysis, hepatic cancer Hep3B; type: cell-based, human; settings: Homo sapiens, 72 h; Hep3B; repeated experiment; read-out: The results of antibiotic drug inhibiting cancer cell lines (cell viability analysis), Hep3B
[6] = test system: HeLa (Cervix Adenocarcinoma); experiment: Cell viability analysis, cervical cancer HeLa; type: cell-based, human; settings: Homo sapiens, HeLa, 72 h, HeLa
[7] = test system: MKN-45 (Gastric Adenocarcinoma); experiment: Cell viability analysis, gastric cancer MKN-45; type: cell-based, human; settings: Homo sapiens, MKN-45, 72 h
[8] = test system: HCT116 (p53+) (Colorectal Carcinoma)
[9] = test system: BCC (basal cell carcinoma); experiment: Cell viability analysis, skin cancer BCC; type: cell-based, human; settings: Homo sapiens, 72 h; BCC; repeated experiment; read-out: The results of antibiotic drug inhibiting cancer cell lines (cell viability analysis), BCC
[10] = test system: HI650 (Lung Adenocarcinoma); experiment: Cell viability analysis, lung cancer HI650; type: cell-based, human; settings: Homo sapiens, NCI-H1650, 72 h
[11] = test system: SAS (Tongue squamous cell carcinoma); experiment: Cell viability analysis, tongue cancer SAS; type: cell-based, human; settings: Homo sapiens, 72 h; SAS; repeated experiment; read-out: The results of antibiotic drug inhibiting cancer cell lines (cell viability analysis), SAS
[12] = test system: A375 (Amelanotic Melanoma); experiment: Cell viability analysis, skin cancer A375; type: cell-based, human; settings: Homo sapiens, A-375, 72 h
[13] = test system: U-2OS; experiment: Cell viability analysis, osteosarcoma U-2OS; type: cell-based, human; settings: Homo sapiens, 72 h; U2OS; repeated experiment; read-out: The results of antibiotic drug inhibiting cancer cell lines (cell viability analysis), U2OS
[14] = test system: A549 (Lung Adenocarcinoma); experiment: Cell viability analysis, lung cancer A549; type: cell-based, human; settings: Homo sapiens, A549, 72 h
[15] = test system: PC3 (p53−) (Prostate Adenocarcinoma); experiment: Cell viability analysis, prostate cancer PC3; type: cell-based, human; settings: Homo sapiens, 72 h
[16] = test system: TOV-21G; experiment: Cell viability analysis, ovarian cancer TOV-21G; type: cell-based, human; settings: Homo sapiens, TOV21G, 72 h; TOV-21G; repeated experiment; read-out: The results of antibiotic drug inhibiting cancer cell lines (cell viability analysis), TOV-21G
[17] = test system: BxPC-3; experiment: Cell viability analysis, pancreatic cancer BxPC-3; type: cell-based, human; settings: Homo sapiens, 72 h; BxPC-3; repeated experiment; read-out: The results of antibiotic drug inhibiting cancer cell lines (cell viability analysis), BxPC-3
[18] = test system: TSGH-8301 (Urinary Bladder Carcinoma); experiment: Cell viability analysis, bladder cancer TSGH-8301; type: cell-based, human; settings: Homo sapiens, 72 h
[19] = test system: T24; experiment: Cell viability analysis, bladder cancer T24; type: cell-based, human; settings: Homo sapiens, T-24, 72 h; T24; repeated experiment; read-out: The results of antibiotic drug inhibiting cancer cell lines (cell viability analysis), T24
[20] = test system: MDA-MB-231 (Mammary Gland, Adenocarcinoma); experiment: Cell viability analysis, breast cancer MDA-MB-231; type: cell-based, human; settings: Homo sapiens, MDA-MB-231, 72 h; MDA-MB231; repeated experiment; read-out: The results of antibiotic drug inhibiting cancer cell lines (cell viability analysis), MDA-MB231
[21] = test system: NIH: OVCAR-3; experiment: Cell viability analysis, ovarian cancer NIH: OVCAR-3; type: cell-based, human; settings: Homo sapiens, 72 h; NIH-OVCAR-3; repeated experiment; read-out: The results of antibiotic drug inhibiting cancer cell lines (cell viability analysis), NIH-OVCAR-3
[22] = test system: AsPC-1; experiment: Cell viability analysis, pancreatic cancer AsPC-1; type: cell-based, human; settings: Homo sapiens, ASPC1, 72 h; AsPC-1; repeated experiment; read-out: The results of antibiotic drug inhibiting cancer cell lines (cell viability analysis), AsPC-1
[23] = test system: C-33A (Cervical carcinoma); experiment: Cell viability analysis, cervical cancer C-33A; type: cell-based, human; settings: Homo sapiens, 72 h; C-33A; repeated experiment; read-out: The results of antibiotic drug inhibiting cancer cell lines (cell viability analysis), C-33A
[24] = test system: LoVo (Colorectal Adenocarcinoma); experiment: Cell viability analysis, colon cancer LoVo; type: cell-based, human; settings: Homo sapiens, LoVo, 72 h
[25] = HepG2, repeated experiment, read-out: The results of antibiotic drug inhibiting cancer cell lines (cell viability analysis), HepG2
[26] = drug 10 μM, 72 hours, WST-1, OD450 nm, read-out: cell viability (survival rate), HepG2
[27] = AGS, repeated experiment, read-out: The results of antibiotic drug inhibiting cancer cell lines (cell viability analysis), AGS
[28] = drug 10 μM, 72 hours, WST-1, OD450 nm, read-out: cell viability (survival rate), AGS
[29] = repeated experiment, read-out: The results of antibiotic drug inhibiting cancer cell lines (cell viability analysis), HeLa
[30] = drug 10 μM, 72 hours, WST-1, OD450 nm, read-out: cell viability (survival rate), HeLa
[31] = MKN-45, repeated experiment, read-out: The results of antibiotic drug inhibiting cancer cell lines (cell viability analysis), MKN-45
[32] = drug 10 μM, 72 hours, WST-1, OD450 nm, read-out: cell viability (survival rate), MKN-45
[33] = H1650, repeated experiment, read-out: The results of antibiotic drug inhibiting cancer cell lines (cell viability analysis), H1650
[34] = drug 10 μM, 72 hours, WST-1, OD450 nm, read-out: cell viability (survival rate), H1650
[35] = A375, repeated experiment, read-out: The results of antibiotic drug inhibiting cancer cell lines (cell viability analysis), A375
[36] = drug 10 μM, 72 hours, WST-1, OD450 nm, read-out: cell viability (survival rate), A375
[37] = A549, repeated experiment, read-out: The results of antibiotic drug inhibiting cancer cell lines (cell viability analysis), A549
[38] = drug 10 μM, 72 hours, WST-1, OD450 nm, read-out: cell viability (survival rate), A549
[39] = PC-3, repeated experiment, read-out: The results of antibiotic drug inhibiting cancer cell lines (cell viability analysis), PC-3
[40] = drug 10 μM, 72 hours, WST-1, OD450 nm, read-out: cell viability (survival rate), PC3
[41] = drug 10 μM, 72 hours, WST-1, OD450 nm, read-out: cell viability (survival rate), TSGH
[42] = read-out: The results of antibiotic drug inhibiting cancer cell lines (cell viability analysis), LoVo, repeated experiment
[43] = read-out: cell viability (survival rate), LoVo, drug 10 μM, 72 hours, WST-1, OD450 nm

CC(C)(C)CC(C)(C)c1ccc(O)c(Cc2ccc(Cl)cc2Cl)c1 [Clofoctol]
viability at 10 µM [1, 25]: 114% | viability at 10 µM [1, 26]: 77.9% | inhibition effect on different cancer cell lines [2]: significant inhibition effect | viability at 10 µM [3]: 83% | viability at 10 µM [4, 27]: 83.9% | viability at 10 µM [4, 28]: 86.7% | viability at 10 µM [5]: 135% | viability at 10 µM [6, 29]: 98% | viability at 10 µM [6, 30]: 58% | viability at 10 µM [7, 31]: 117% | viability at 10 µM [7, 32]: 73.6% | viability [8]: 76.6% | viability at 10 µM [9]: 94.6% | viability at 10 µM [10, 33]: 69.6% | viability at 10 µM [10, 34]: 77% | viability at 10 µM [11]: 73.2% | viability at 10 µM [12, 35]: 109% | viability at 10 µM [12, 36]: 34.5% | viability at 10 µM [13]: 74.9% | viability at 10 µM [14, 37]: 90.6% | viability at 10 µM [14, 38]: 55.6% | viability at 10 µM [15, 39]: 110% | viability at 10 µM [15, 40]: 63.4% | viability at 10 µM [16]: 73.1% | viability at 10 µM [17]: 65.8% | viability at 10 µM ([18]; TSGH-8301, repeated experiment, read-out: The results of antibiotic drug inhibiting cancer cell lines (cell viability analysis), TSGH-8301): 109% | viability at 10 µM [18, 41]: 72.3% | viability at 10 µM [19]: 90.8% | viability at 10 µM [20]: 102% | viability at 10 µM [21]: 97.8% | viability at 10 µM [22]: 78.7% | viability at 10 µM [23]: 117% | viability at 10 µM [24, 42]: 67.1% | viability at 10 µM [24, 43]: 74.7%

CCc1cc2c(cc1CC)CC(NC[C@H](O)c1ccc(O)c3[nH]c(=O)ccc13)C2 [Indacaterol Maleate]
viability at 10 µM [1, 25]: 84.4% | viability at 10 µM [1, 26]: 81.2% | inhibition effect on different cancer cell lines [2]: significant inhibition effect | viability at 10 µM [3]: 87.2% | viability at 10 µM [4, 27]: 50.2% | viability at 10 µM [4, 28]: 54.1% | viability at 10 µM [5]: 97.6% | viability at 10 µM [6, 29]: 96.6% | viability at 10 µM [6, 30]: 71.8% | viability at 10 µM [7, 31]: 84.5% | viability at 10 µM [7, 32]: 30.3% | viability [8]: 91.9% | viability at 10 µM [9]: 82.1% | viability at 10 µM [10, 33]: 86.6% | viability at 10 µM [10, 34]: 36% | viability at 10 µM [11]: 61.7% | viability at 10 µM [12, 35]: 87.2% | viability at 10 µM [12, 36]: 45.7% | viability at 10 µM [13]: 62.6% | viability at 10 µM [14, 37]: 79.6% | viability at 10 µM [14, 38]: 65.1% | viability at 10 µM [15, 39]: 100% | viability at 10 µM [15, 40]: 55.5% | viability at 10 µM [16]: 95.3% | viability at 10 µM [17]: 91.4% | viability at 10 µM [18, 41]: 56% | viability at 10 µM [19]: 122% | viability at 10 µM [20]: 103% | viability at 10 µM [21]: 79.3% | viability at 10 µM [22]: 85.4% | viability at 10 µM [23]: 94.3% | viability at 10 µM [24, 42]: 79.1% | viability at 10 µM [24, 43]: 61.4%

Reference: patent US10105357B2, “Indication of antibiotic drugs for preparation of cancer inhibition pharmaceutical composition” (LAUNX BIOMEDICAL CO., LTD., priority 2014, dated 2018)
